Reference: patent US7807162B2, “Single domain VHH antibodies against von Willebrand factor” (Ablynx N.V., priority 2005, dated 2010)
Values joined by “and” are separate entries in the source; they are usually repeats but may differ in a detail not shown here. Identical values can stand only once.

Assays:
[1] = test system: cyclic flow reductions (CFRs) in injured, stenosed femoral artery; assay: Use of vWF as an antidote for ALX-0081 in the baboon Folts model; type: in vivo, baboon (Papio ursinus)
From the text: The experimental procedure followed the original Folts model with the modifications as described in the previous example 18.
Healthy male baboons (Papio ursinus) were used in this study. The animals were 9-12 kg of weight and were disease-free for at least 2 weeks prior to use. The baboons were fed with dry standard food only.

[2] = test system: cyclic flow reductions (CFRs) in injured, stenosed femoral artery; assay: Folts model in baboons: Aspegic-Heparin-Plavix combination with ALX-0081 on top; type: in vivo, baboon (Papio ursinus)
Experimental: Extra Heparin was administered at different time points to sustain a certain level (aPTT should be at least doubled versus control). […] The anti-thrombotic effect was quantified by comparing the length of CFRs before and after drug administration. When full inhibition of CFRs was observed, a new injury was applied. Epinephrin was injected and continued till the end of the experiment. […] (1), 3, 10 or 30 μg/kg. […] The specifications of the baboons that were used in this study are represented in table 49.

[3] = test system: platelet adhesion to endothelial cell-derived ULvWF; assay: Platelet string formation on ULvWF of histamine-stimulated endothelial cells (perfusion); type: cell-based, human; settings: 0.2, 2 and 10 μg/ml; platelets in buffer or TTP plasma; 2.5 dyn/cm2, 4 minutes
Experimental: Endothelial cells were obtained from human umbilical cord veins by the method of Maruyama (Z. Zellforsch. Mikrosk. A4nat. 60:69; 1963). Endothelial cells were activated with 100 μM histamine (Sigma-Aldrich, St Louis, Mo.) for 15 minutes at room temperature before the perfusion experiments.
Blood was drawn from healthy volunteers who denied ingestion of aspirin or other nonsteroidal anti-inflammatory drugs (NSAIDs) for the preceding 10 days into one-tenth volume 3.4% sodium citrate. Platelet-rich plasma (PRP) was prepared from whole blood by centrifugation (10 minutes at 200 g at room temperature). […] The platelet pellet was resuspended in HEPES (N-2-hydroxyethylpiperazine-N′-2-ethanesulfonic acid)-Tyrode buffer (10 mM HEPES, 137 mM NaCl, 2.68 mM KCl, 0.42 mM NaH2PO4, 1.7 mM MgCl2, 5 mM D-glucose, pH 6.5). Prostacyclin (PGI2, 10 ng/mL) was added to prevent platelet activation during the subsequent washing step. Platelets were spun down and resuspended in a small volume of HEPES-Tyrode buffer. This platelet suspension was diluted in HEPES buffer at pH 7.4, or in TTP plasma. […]
Endothelial cells were isolated from freshly obtained human umbilical cords by collagenase digestion of the interior of the umbilical vein. […] These ULvWF-adhered platelets appear as so-called ‘strings’, which are visible when the perfusion experiment is monitored by real-time video microscopy (FIG. 41). […]

[4] = test system: cyclic flow reductions (CFRs) in injured, stenosed femoral artery; assay: Folts thrombosis model in baboons: length/inhibition of cyclic flow reductions (CFRs); type: in vivo, baboon (Papio ursinus); settings: for Length of CFRs: individual baboons 16-24; for effective dose: Folts model
Experimental: The study protocol that was applied is the original Folts model and some modifications described below (Folts J D, et al, Circulation. 1976; 54:365-370). Healthy male or female baboons (Papio ursinus) were used. The animals were 8-17 kg of weight and were disease-free for at least 2 weeks prior to use. The baboons were fed with dry standard food only. The baboons were used at different time points. […] Animals were anaesthetized and body temperature is maintained at 37° C. with a heating table. A segment of a femoral artery was dissected free from surrounding tissue. A shunt was placed between the femoral vein and femoral artery to obtain high shear rates. The mean and phasic blood flow was recorded continuously throughout the experiment. Baseline flow was recorded for 20 minutes. […] A clamp was placed over the injured site to create an external stenosis. A gradual decline in blood flow due to platelet adhesion and aggregation was observed. When flow was reduced to zero, blood flow was restored by opening the clamp to dislodge the platelet-rich thrombus. This repetitive pattern of decreasing blood flow following mechanical restoration is referred to as cyclic flow reductions (CFRs). Additional endothelial injury was repeated if needed to finally obtain stable CFRs in these baboons. The number of times the thrombus needed to be dislodged determines the number of CFRs. FIG. 24 illustrates blood flow pattern during the Folts model in baboons. […] This procedure was repeated for several times with escalating doses of the test substance. The anti-thrombotic effect was quantified by comparing the length of CFRs before and after drug administration. When full inhibition of CFRs was observed, a new injury was applied in order to confirm that the inhibition was an effect of the treatment but not of a natural healing phenomenon.

[5] = test system: ristocetin-induced platelet aggregation; assay: Ristocetin-induced platelet aggregation (RIPA) ex vivo in blood of treated baboons
Experimental: Platelet aggregations were performed on a Chronolog whole blood and optical Aggregometer (Model 560CA, Chronolog, USA). PRP was prepared (collected on 0.38 mol/L citrate), by centrifuging the whole blood at 1200 rpm for 5 minutes. The upper fraction containing the PRP was carefully removed. The lower fraction was further centrifuged at 3000 rpm for 10 minutes to prepare platelet poor plasma (PPP). Platelets were counted in PRP and diluted in PPP to a final concentration of 200.000 platelets per microliter. 3 mg/ml ristocetin (DAKO) was added and aggregation was measured.
The GPIb-IX-V dependent platelet aggregation through vWF is measured using ristocetin as a modulator. The % aggregation is measured at each time point and at each dose.

ADAMTS-13 = assay: Cleavage of recombinant A1-A2-A3 vWF fragment by ADAMTS-13 (Western Blot); type: biochemical, human; settings: 10 μg/ml; normal pool plasma
Experimental: In a second type of experiment, different reaction mixtures were prepared as summarized in table 60, however, without the addition of the A1A2A3 construct. The A1A2A3 construct is a recombinant fragment consisting out of the A1, A2 and A3 domain of vWF. Mixtures were pre-incubated for 5 minutes at 37° C. after which the A1A2A3 fragment is added and the mixture is incubated in a waterbath overnight at 37° C. […] The blot was blocked for 2 hours at room temperature with blockbuffer (1:1 Odyssey blockbuffer in 1×TBS pH=7.4) and incubated with Rabbit polyclonal anti-vWF (DAKO). Alexa Fluor 680 goat anti-rabbit was used for detection. Scanning was done on the ODYSSEY to detect the degradation products.
In a second assay, a recombinant fragment containing the A1-A2-A3 domain of vWF was mixed with normal pool plasma (NPP) containing ADAMTS-13, resulting in proteolytic cleavage of the fragment which was observed by a Western Blot analysis.

[6] = number of experiments with inhibition / total number of independent repeats

Substance: ALX-0081: ALX-0081 (SEQ ID NO:98), Nanobody; humanised bivalent nanobody with the 3a linker
- Length of CFRs ([1]; 30 μg/kg + 45 μg/kg/hour ALX-0081, baboons 1-3): >1800 s
- dose at which full inhibition of CFRs was obtained ([1]; all three baboons, bolus followed by 45 μg/kg/hour): 0.03 mg/kg
- CFRs upon a new injury ([1]; at 30 μg/kg+45 μg/kg/hour ALX-0081): the CFRs did not return
- CFRs upon a new injury ([2]; at the effective dose of ALX-0081 on top of the combination): the CFRs did not return
- dose at which full inhibition of the CFRs was obtained ([2]; on top of Aspegic, Heparin, Plavix, continued Epinephrin infusion, all seven baboons): 0.03 mg/kg
- Length of CFRs ([2]; on top of Aspegic/Heparin/Plavix combination: Epinephrin + effective dose ALX-0081, individual baboons 4-10): >1800 s
- string formation of platelets on ULvWF [3]: complete inhibition of string formation
- Length of CFRs ([4]; ALX-0081-treated, after Epinephrin): >1200 s (2×) and >900 s (7×)
- Length of CFRs ([4]; ALX-0081 final dose 3 μg/kg): 295 s and 193 s and 144 s and 133 s and 183 s and 312 s and 112 s
- Length of CFRs ([4]; ALX-0081 final dose 13 μg/kg): 380 s and 913 s and >1800 s (2×) and 298 s and 237 s and 620 s and 525 s and 213 s
- Length of CFRs ([4]; ALX-0081 final dose 43 μg/kg): >1800 s
- Length of CFRs ([4]; ALX-0081 final dose 133 μg/kg): >1800 s
- effective dose [4]: 30 µg/kg
- effective dose ([4]; inhibition of CFRs, final dose, ALX-0081: + […] dose/kg/hour): 13-43 μg/kg +
- final dose at which full inhibition of CFRs was obtained ([4]; all baboons (nine)): 0.043 mg/kg
- dose at which full inhibition of CFRs was obtained ([4]; all baboons (nine), bolus followed by 45 μg/kg/hour infusion): 0.03 mg/kg
- dose at which full inhibition of CFRs was already obtained ([4]; baboons 17 and 22, bolus followed by 15 μg/kg/hour infusion): 0.01 mg/kg
- CFRs upon a new injury ([4]; new injury applied at full inhibition of CFRs): Inhibition was retained
- Inhibition of CFRs [4, 6]: 9/9
- Inhibition of CFRs after administration of Epinephrin [4, 6]: 9/9
- Inhibition of CFRs after new injury [4, 6]: 9/9
- relation between RIPA and the length of the CFRs ([5]; 3 mg/ml ristocetin): inverse relation
- dose for full inhibition in RIPA versus full inhibition of CFRs ([5]; baboons 16, 18, 19 and 23): full inhibition in the RIPA test is obtained at lower doses than full inhibition of CFRs
- effect on the cleavage of the A1-A2-A3 vWF fragment by ADAMTS-13 (ADAMTS-13): no effect
